# Laboratory results: patent US20260315446A1, “ANTIFUNGAL COMPOUNDS AND USES THEREOF” (priority 2023, published 2026)
# Entries after “also recorded” stand apart in the source; their conditions may differ. Read-outs that look alike come from different tables or passages of the source.
# Key:
# fungi = conditions: listed as L-685,818; cited from earlier work
# C. neoformans = assay: MIC assay (Example 4); type: cell-based, Cryptococcus neoformans; conditions: Cryptococcus neoformans
# Method: Both JH-FK-10 and JH-FK-11 maintained in vitro antifungal activity against C. neoformans with MICs of 0.8 and 1.6 μg/mL, respectively (Table 11).
# In vitro antifungal activity of FK506, FK520, and analogs was assessed in RPMI 1640 (Sigma-Aldrich) for all strains tested. Minimum inhibitory concentrations (MIC) for each drug were measured using modified Clinical and Laboratory Standards Institute (CLSI) M38-A2 and M27-A3 standard in vitro antifungal susceptibility protocols. Broth microdilution assays for MIC assessment were performed as previously described. All antifungal assays with C. neoformans were performed at 37° C.
# immunosuppression = conditions: listed as L-685,818; cited from earlier work
# [1] = tested on: IL-2 expression in primary murine CD4+ T cells; assay: In vitro immunosuppressive activity, IL-2 expression (Example 4); type: cell-based, mouse
# Method: Spleen and lymph nodes were collected from C57BL/6 mice and homogenized through a 40 μm filter. Pan-CD4^+ T cells were enriched using MagniSort Mouse CD4 T cell Kit (eBioscience) according to the manufacturer's protocol. Thereafter, CD4+CD25−CD44lo CD62Lhi naïve T cells were FACS-sorted. The naïve CD4+ T cells were grown in Iscove's Modified Dulbecco's Medium (IMDM) supplemented with glutamine, penicillin, streptomycin, gentamicin, 2-mercaptoethanol, and 10% FBS. Cells were then cultured on anti-hamster IgG coated plates in the presence of hamster anti-CD3 epsilon and anti-CD28 antibodies (BD Biosciences), neutralizing anti-IL-4 antibody (eBioscience), recombinant IL-12 (10 ng/mL), and recombinant IL-2 (50 U/mL) for 72 h. During this period, cells were grown in the presence of 2× serially diluted FK506, FK520, or analog suspended in DMSO for 72 h. During the last 4 h of culture, phorbol 12-myristate 13-acetate (PMA; Sigma), ionomycin (Sigma), and GolgiStop (BD Biosciences) were added to the culture to facilitate detection of intracellular cytokines via flow cytometry.
# Live cells were stained with FITC-conjugated anti-CD4 antibody (eBioscience) and Fixable Viability Dye eFluor 506 (eBioscience) on ice, followed by fixation and permeabilization using the Foxp3 Transcription Factor Staining Kit (eBioscience). Intracellular staining was performed at room temperature using PE-conjugated anti-IL-2 antibody (eBioscience), followed by analysis with a BD LSRFortessa X-20 flow cytometer.
# C. neoformans strain H99 [2] = assay: Survival during cryptococcal infection (Example 3); type: in vivo, Cryptococcus neoformans in A/J mice; conditions: 2 weeks twice daily i.p.; fluconazole 6 mg/kg, JH-FK-08 40 mg/kg; vehicle 16 days
# Method: Finally, whether the antifungal efficacy translates into extended survival during infection was assessed. To test the impact of treatment on survival, murine survival was monitored in the cryptococcosis infection model. Following the same protocol of infection and dosing as in the fungal burden experiment, animal survival was monitored following infection and 2 weeks of intraperitoneal dosing. Fluconazole treatment extended median survival from 16 to 27 days.
# (§1) C. neoformans inoculum was prepared by growing a 5-mL overnight YPD culture spinning in a tissue culture roller drum at 30° C. Cells were pelleted by centrifugation and washed in sterile PBS three times. Cell density was determined by hemocytometer, and cells were diluted to 2×10^6 cells/mL. Mice (10 to 20 g) were infected with 10^5 cells of C. neoformans H99. For inhalation infection, animals were anesthetized with isoflurane before 50 μL of inoculum was pipetted onto the upright nasal passages of each animal. Following inhalation of the inoculum, animals were monitored for post anesthesia recovery. Treatment of animals began 4 hours post infection and was continued for 14 days. Fungal burden was assessed 24 h after the final dose.
# For survival curve analysis, animals were monitored until reaching defined humane end points, including social isolation, hunched posture, weight loss, lack of grooming, and labored breathing, and were then euthanized via CO2 inhalation. For fungal burden analysis, mice were euthanized following 2 weeks of treatment with a designated antifungal, vehicle, or combination. Brain, lung, and spleen were harvested from animals, weighed, and homogenized in sterile PBS using steel beads and a bead beater. Each organ homogenate was serially diluted 10-fold to 10-4 in PBS. One hundred microliters of each dilution was plated on YPD plates supplemented with YPD 50 μg/mL ampicillin and 30 μg/mL chloramphenicol, incubated at 30° C. for 2 days, and assessed for colony-forming units. CFU per organ weight was calculated and plotted using GraphPad Prism 9.
# C. neoformans strain H99 [3] = assay: Murine cryptococcal infection, spleen fungal burden (Example 3); type: in vivo, Cryptococcus neoformans in A/J mice; conditions: 14 days; fluconazole 6 mg/kg, JH-FK-08 40 mg/kg, i.p. twice per day
# Method: (§2) In vivo antifungal activity and therapeutic benefit were assayed by investigating the impact of the FK520 analog on organ fungal burden during cryptococcosis. Specifically, the in vivo efficacy of JH-FK-08 on fungal burden was assessed using A/J female mice. Immunodeficient A/J mice were selected in part due to their defect in complement component five and their susceptibility to cryptococcal infection. Treatment groups included vehicle of 10% Kolliphor: ethanol (1:1) in phosphate-buffered saline (PBS), 6 mg/kg fluconazole, 40 mg/kg JH-FK-08, or the fluconazole and JH-FK-08 combination, all given via intraperitoneal (i.p.) injection twice per day beginning at 4 hours post infection. […] Mice were intranasally infected with C. neoformans strain H99, and fungal burden in the lung, spleen, and brain was assessed after 14 days of treatment.
# as §1, with “For inhalation infection, animals were anesthetized with isoflurane before 50 μL of inoculum was pipetted onto the upright nasal passages of each animal.” left out, “Treatment of animals began 4 hours post infection and was continued for 14 days.” left out, “dose. […]” for “dose.”
# C. neoformans H99 [4] = assay: Intranasal model of pulmonary cryptococcosis, lung fungal burden (Example 1); type: in vivo, Cryptococcus neoformans in A/J mice; conditions: day 14; fluconazole 12 mg/kg i.p. daily
# Method: First, in the intranasal model, animals were anesthetized and infected with 10^5 cells of wild-type H99 C. neoformans via instillation in the animal's nares. These animals were monitored for 14 days and then sacrificed. This model tests the efficacy of JH-FK-05 to treat a pulmonary infection, which is the most common manifestation of early-stage cryptococcosis in patients. […] In both models, animals were treated once daily via i.p. injection beginning 3 h after infection with either vehicle, 60 mg/kg JH-FK-05, 12 mg/kg fluconazole, or a combination of the two monotherapies.
# Wild-type H99 C. neoformans cells were grown overnight at 30° C. in a roller drum in yeast extract-peptone-dextrose (YPD) medium. […] H99 cells were counted with a hemacytometer and diluted to 2×10^6 cells/mL in PBS for the pulmonary model and 2×10^5 cells/mL in PBS for the disseminated model.
# Female A/J mice (3 to 4 weeks old; Jackson Laboratory) were anesthetized utilizing an isoflurane chamber. […] After 14 days, animals were either sacrificed for fungal burden analysis or monitored for health and survival until reaching a humane endpoint.
# Mice were euthanized by CO2 inhalation at the predetermined experimental endpoint. […] A 100-μL aliquot of each dilution was plated on antibiotic plates (YPD, 50 μg/mL ampicillin, and 30 g/mL chloramphenicol), incubated for 48 to 72 h at 30° C., and assessed for CFU. […]
# C. neoformans strain H99 [5] = assay: Murine cryptococcal infection, brain fungal burden (Example 3); type: in vivo, Cryptococcus neoformans in A/J mice; conditions: 14 days; fluconazole 6 mg/kg, JH-FK-08 40 mg/kg, i.p. twice per day
# Method: as §2
# as §1, with “For inhalation infection, animals were anesthetized with isoflurane before 50 μL of inoculum was pipetted onto the upright nasal passages of each animal.” left out, “Treatment of animals began 4 hours post infection and was continued for 14 days.” left out, “dose. […]” for “dose.”
# C. neoformans strain H99 [6] = assay: Murine cryptococcal infection, lung fungal burden (Example 3); type: in vivo, Cryptococcus neoformans in A/J mice; conditions: JH-FK-08 40 mg/kg
# Method: as §2, with “[…],” for “6 mg/kg fluconazole, 40 mg/kg JH-FK-08,”, “all given via intraperitoneal (i.p.) injection twice per day beginning at 4 hours post” left out
# as §1
# For survival curve analysis, animals were monitored until reaching defined humane end points, including social isolation, hunched posture, weight loss, lack of grooming, and labored breathing, and were then euthanized via CO2 inhalation. […] One hundred microliters of each dilution was plated on YPD plates supplemented with YPD 50 μg/mL ampicillin and 30 μg/mL chloramphenicol, incubated at 30° C. for 2 days, and assessed for colony-forming units. CFU per organ weight was calculated and plotted using GraphPad Prism 9.
# C. neoformans H99 [7] = assay: Survival in intranasal cryptococcosis model (Example 1); type: in vivo, Cryptococcus neoformans in A/J mice; conditions: 14 days treatment; JH-FK-05 60 mg/kg, fluconazole 12 mg/kg, i.p. daily
# Method: To verify if this reduction seen in the fungal burdens of JH-FK-05 and combination-treated animals could translate into a meaningful therapeutic effect, the survival of animals infected via the intranasal route was assessed (FIG. 8A). As in the fungal burden model, these animals received daily treatment for only 14 days. Following the termination of treatment, animals were monitored for signs of decline, lethargy, and ultimately, moribundity. Untreated animals in this model typically survive for about 3 weeks, and similar results were observed here (vehicle treatment median survival, 22 days). Corroborating the results of the fungal burden study, a significant extension of survival for both JH-FK-05 (median survival, 26 days) and fluconazole (median survival, 25 days) was observed.
# Female A/J mice (3 to 4 weeks old; Jackson Laboratory) were anesthetized utilizing an isoflurane chamber. While anesthetized, […] of 2×10^6 cells/mL suspension was dripped onto the nares of mice, allowing them to inhale the full inoculum. Treatment began 3 h following infection with i.p. dosing of vehicle, 60 mg/kg JH-FK-05, 12 mg/kg fluconazole, or combination. […] After 14 days, animals were either sacrificed for fungal burden analysis or monitored for health and survival until reaching a humane endpoint. […] Statistical significance was determined using log-rank (Mantel-Cox) tests.
Compound,antifungal activity (fungi),"MIC (C. neoformans; 37° C., Table 13, read-out: C. neoformans MIC) [mg/L]","MIC (C. neoformans; read-out: C. neoformans MIC, 37° C., Table 11) [mg/L]","MIC (C. neoformans; read-out: C. neoformans MIC, 37° C., Table 12) [mg/L]",immunosuppression (immunosuppression),immunosuppressive activity [1],"IC50 ([1]; Mus musculus, CD4+ T, Table 12) [µM]",median survival (C. neoformans strain H99 [2]) [days],spleen fungal burden (C. neoformans strain H99 [3]),lung fungal burden (C. neoformans H99 [4]),brain fungal burden (C. neoformans strain H99 [5]),"reduction of lung fungal burden (C. neoformans strain H99 [6]; 14 days, fluconazole 6 mg/kg, i.p. twice per day)","lung fungal burden reduction (C. neoformans strain H99 [6]; once daily, fluconazole 12 mg/kg)",median survival (C. neoformans H99 [7]) [days]
"CC[C@@H]1/C=C(\C)C(O)[C@H](C)C[C@H](OC)[C@H]2O[C@@](O)(C(=O)C(=O)N3CCCC[C@H]3C(=O)O[C@H](/C(C)=C/[C@@H]3CC[C@@H](O)[C@H](OC)C3)[C@H](C)[C@@H](O)CC1=O)[C@H](C)C[C@@H]2OC (single isomer, unassigned) [JH-FK-11]",robust antifungal activity; also recorded: broad-spectrum antifungal activity,1.6,3.2,1.6,non-immunosuppressive; also recorded: reduced for immunosuppression in vitro,detectable immunosuppressive activities; also recorded: significantly reduced for immunosuppressive activity compared to its FK506 counterpart JH-FK-10,0.0414,–,–,–,–,–,–,–
"OC(Cn1cncn1)(Cn1cncn1)c1ccc(F)cc1F [fluconazole, reference compound]",–,–,–,–,–,–,–,27,no detectable fungal burden,did not reduce the fungal burden,no detectable fungal burden,~ 6 fold,limited efficacy in reducing lung fungal burden,25
